Reference: patent publication EP0470275B1, “Skin whitening cosmetics” (priority 1990, dated 1992)

How the values were obtained:
[1] = Solubility of linoleic acid in a silicone oil or a mixed silicone oil
pigmentation = test: Animal experiments on inhibition of pigmentation (general statement, no method given); type: in vivo; conditions: compared with free fatty acids or alkyl esters thereof

CC/C=C\C/C=C\C/C=C\CCCCCCCC(=O)O [α-linolenic acid]
Solubility in dimethylpolysiloxane [1]: not soluble

CCCCC/C=C\C/C=C\CCCCCCCC(=O)O [linoleic acid]
Solubility in dimethylpolysiloxane [1]: not soluble

CCCCCCCCCCCCCCCC(=O)O [palmitic acid]
effects on inhibition of pigmentation (pigmentation): no such significant effects

CCCCCCCCCCCCCCCCCC(=O)O [stearic acid]
effects on inhibition of pigmentation (pigmentation): no such significant effects
